Laboratory results as given in ChEMBL document CHEMBL6078616, “Seven-membered N-heterocycles as approved drugs and promising leads in medicinal chemistry as well as the metal-free domino access to their scaffolds” (Eur J Med Chem, 2024).

Experiments:
MCF7 = test: Antiproliferative activity against human MCF7 cells assessed as reduction in cell viability; type: functional, cell-based
Sphingosine kinase 1 = Sphingosine kinase 1 (Homo sapiens, UniProt Q9NYA1); test: Inhibition of SPHK1 (unknown origin)
Histone deacetylase 2 = Histone deacetylase 2 (Homo sapiens, UniProt Q92769); test: Inhibition of HDAC2 (unknown origin)
Histone deacetylase 5 = Histone deacetylase 5 (Homo sapiens, UniProt Q9UQL6); test: Inhibition of HDAC5 (unknown origin)
Histone deacetylase 11 = biological target: T1, Histone deacetylase 11 (Homo sapiens, UniProt Q96DB2); test: Inhibition of HDAC11 (unknown origin)
T1 sequence (Q96DB2 whole entry): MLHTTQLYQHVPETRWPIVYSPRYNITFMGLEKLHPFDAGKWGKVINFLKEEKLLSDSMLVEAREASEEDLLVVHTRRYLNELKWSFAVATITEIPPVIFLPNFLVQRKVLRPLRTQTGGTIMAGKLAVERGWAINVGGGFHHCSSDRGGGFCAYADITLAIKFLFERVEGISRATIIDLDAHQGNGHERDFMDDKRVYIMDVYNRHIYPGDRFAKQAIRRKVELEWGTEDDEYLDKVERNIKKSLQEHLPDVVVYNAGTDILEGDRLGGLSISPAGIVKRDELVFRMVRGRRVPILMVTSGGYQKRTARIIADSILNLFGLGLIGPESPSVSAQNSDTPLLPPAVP

[1] = biological target: T2, Polyamine deacetylase HDAC10 (Homo sapiens, UniProt Q969S8); test: Inhibition of HDAC10 (unknown origin)
T2 sequence (Q969S8 whole entry): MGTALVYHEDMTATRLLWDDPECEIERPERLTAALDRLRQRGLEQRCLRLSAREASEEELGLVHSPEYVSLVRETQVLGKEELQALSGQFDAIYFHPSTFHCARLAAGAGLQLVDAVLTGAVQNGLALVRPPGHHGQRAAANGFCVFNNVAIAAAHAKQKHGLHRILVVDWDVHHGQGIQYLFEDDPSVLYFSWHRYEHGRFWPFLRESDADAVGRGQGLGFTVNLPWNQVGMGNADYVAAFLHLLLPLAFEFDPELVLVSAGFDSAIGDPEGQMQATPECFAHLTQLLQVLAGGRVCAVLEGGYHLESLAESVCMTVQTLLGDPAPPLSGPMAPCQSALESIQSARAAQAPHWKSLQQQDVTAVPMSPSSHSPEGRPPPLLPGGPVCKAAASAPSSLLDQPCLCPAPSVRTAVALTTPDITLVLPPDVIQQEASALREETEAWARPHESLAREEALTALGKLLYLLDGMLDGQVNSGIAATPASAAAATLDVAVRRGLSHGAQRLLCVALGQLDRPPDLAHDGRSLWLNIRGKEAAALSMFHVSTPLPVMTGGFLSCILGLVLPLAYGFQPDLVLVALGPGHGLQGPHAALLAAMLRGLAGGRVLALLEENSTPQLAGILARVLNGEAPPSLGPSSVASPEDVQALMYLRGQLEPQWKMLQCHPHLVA

[2] = biological target: T3, Protein deacetylase HDAC6 (Homo sapiens, UniProt Q9UBN7); test: Inhibition of HDAC6 (unknown origin)
T3 sequence (Q9UBN7 whole entry): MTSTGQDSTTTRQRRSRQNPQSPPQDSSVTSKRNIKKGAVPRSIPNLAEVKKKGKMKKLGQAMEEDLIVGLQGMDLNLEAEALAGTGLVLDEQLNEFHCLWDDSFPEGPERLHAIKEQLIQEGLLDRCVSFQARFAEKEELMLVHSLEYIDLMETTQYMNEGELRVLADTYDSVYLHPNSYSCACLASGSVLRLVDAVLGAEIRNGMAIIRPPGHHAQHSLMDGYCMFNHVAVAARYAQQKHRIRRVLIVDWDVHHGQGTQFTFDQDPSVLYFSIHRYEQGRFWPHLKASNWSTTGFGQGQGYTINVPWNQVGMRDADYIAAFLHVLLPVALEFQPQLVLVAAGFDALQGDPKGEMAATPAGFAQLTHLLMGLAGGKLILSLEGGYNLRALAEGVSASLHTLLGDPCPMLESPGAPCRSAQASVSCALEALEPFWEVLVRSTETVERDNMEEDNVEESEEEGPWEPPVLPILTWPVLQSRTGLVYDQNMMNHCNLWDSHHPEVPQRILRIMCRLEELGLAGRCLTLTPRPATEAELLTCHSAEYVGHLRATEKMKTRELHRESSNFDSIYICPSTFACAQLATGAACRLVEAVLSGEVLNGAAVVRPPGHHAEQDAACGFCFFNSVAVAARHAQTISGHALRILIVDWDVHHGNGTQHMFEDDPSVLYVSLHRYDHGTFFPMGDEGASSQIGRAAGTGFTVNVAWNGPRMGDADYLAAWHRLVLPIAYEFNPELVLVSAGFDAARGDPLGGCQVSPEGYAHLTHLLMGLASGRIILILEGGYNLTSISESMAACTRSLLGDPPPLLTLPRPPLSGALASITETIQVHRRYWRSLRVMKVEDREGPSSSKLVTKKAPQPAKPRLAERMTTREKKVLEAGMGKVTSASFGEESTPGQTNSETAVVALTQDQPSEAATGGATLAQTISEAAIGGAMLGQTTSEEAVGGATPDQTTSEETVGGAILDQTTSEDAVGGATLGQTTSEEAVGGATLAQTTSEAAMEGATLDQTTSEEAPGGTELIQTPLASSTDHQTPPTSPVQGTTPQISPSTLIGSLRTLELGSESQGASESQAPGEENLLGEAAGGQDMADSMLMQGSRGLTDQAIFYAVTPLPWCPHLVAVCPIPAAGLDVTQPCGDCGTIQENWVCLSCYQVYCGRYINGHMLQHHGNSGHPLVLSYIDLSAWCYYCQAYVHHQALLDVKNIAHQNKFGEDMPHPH

Histone deacetylase 7 = biological target: T4, Histone deacetylase 7 (Homo sapiens, UniProt Q8WUI4); test: Inhibition of HDAC7 (unknown origin)
T4 sequence (Q8WUI4 whole entry): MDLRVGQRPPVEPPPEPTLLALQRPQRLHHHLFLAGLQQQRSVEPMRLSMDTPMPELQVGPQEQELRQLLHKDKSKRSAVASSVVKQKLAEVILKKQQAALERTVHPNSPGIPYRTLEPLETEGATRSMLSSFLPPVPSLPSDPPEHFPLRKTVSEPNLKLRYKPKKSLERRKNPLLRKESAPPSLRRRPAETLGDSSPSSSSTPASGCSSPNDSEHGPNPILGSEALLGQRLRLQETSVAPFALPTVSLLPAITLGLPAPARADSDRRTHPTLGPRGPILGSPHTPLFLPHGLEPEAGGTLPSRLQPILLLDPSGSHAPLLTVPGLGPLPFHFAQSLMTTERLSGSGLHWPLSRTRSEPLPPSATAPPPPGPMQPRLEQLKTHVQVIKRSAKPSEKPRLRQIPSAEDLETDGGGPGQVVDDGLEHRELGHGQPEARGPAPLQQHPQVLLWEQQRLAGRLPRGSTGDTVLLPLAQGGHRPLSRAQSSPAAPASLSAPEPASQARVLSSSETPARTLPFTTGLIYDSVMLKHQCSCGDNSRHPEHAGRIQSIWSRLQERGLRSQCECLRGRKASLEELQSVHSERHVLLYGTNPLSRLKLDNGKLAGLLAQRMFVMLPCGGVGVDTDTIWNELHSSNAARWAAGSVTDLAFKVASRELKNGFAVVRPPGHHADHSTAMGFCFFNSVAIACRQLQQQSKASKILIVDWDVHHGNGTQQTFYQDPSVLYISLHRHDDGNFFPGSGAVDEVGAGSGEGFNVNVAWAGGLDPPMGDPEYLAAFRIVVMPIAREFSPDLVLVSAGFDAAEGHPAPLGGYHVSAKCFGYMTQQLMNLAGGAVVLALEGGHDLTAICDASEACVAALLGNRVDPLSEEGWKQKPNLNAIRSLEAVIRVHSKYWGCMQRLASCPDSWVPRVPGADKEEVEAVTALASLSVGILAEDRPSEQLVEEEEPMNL

Histone deacetylase 9 = Histone deacetylase 9 (Homo sapiens, UniProt Q9UKV0); test: Inhibition of HDAC9 (unknown origin)
Histone deacetylase 8 = biological target: T5, Histone deacetylase 8 (Homo sapiens, UniProt Q9BY41); test: Inhibition of HDAC8 (unknown origin)
T5 sequence (Q9BY41 whole entry): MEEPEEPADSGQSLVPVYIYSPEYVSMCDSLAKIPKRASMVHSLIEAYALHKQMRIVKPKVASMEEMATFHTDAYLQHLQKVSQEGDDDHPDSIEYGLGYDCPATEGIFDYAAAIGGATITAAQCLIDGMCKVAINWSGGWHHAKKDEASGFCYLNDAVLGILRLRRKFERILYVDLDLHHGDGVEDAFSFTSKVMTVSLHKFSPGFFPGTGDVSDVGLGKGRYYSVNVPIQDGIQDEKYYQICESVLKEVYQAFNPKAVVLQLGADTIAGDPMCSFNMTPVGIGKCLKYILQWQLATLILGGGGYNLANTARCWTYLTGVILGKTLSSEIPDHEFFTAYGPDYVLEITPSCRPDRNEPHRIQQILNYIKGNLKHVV

Histone deacetylase 1 = Histone deacetylase 1 (Homo sapiens, UniProt Q13547); test: Inhibition of HDAC1 (unknown origin)
Histone deacetylase 3 = Histone deacetylase 3 (Homo sapiens, UniProt O15379); test: Inhibition of HDAC3 (unknown origin)
Histone deacetylase 4 = Histone deacetylase 4 (Homo sapiens, UniProt P56524); test: Inhibition of HDAC4 (unknown origin)
Vasopressin V1a receptor = Vasopressin V1a receptor (Homo sapiens, UniProt P37288); test: Inhibition of Vasopressin V1A receptor (unknown origin)
Spike glycoprotein = Spike glycoprotein (Severe acute respiratory syndrome coronavirus 2, UniProt P0DTC2); test: Binding affinity to SARS-Cov-2 Spike protein assessed as dissociation constant

Chain of Histone deacetylase 5 (Q9UQL6 whole entry): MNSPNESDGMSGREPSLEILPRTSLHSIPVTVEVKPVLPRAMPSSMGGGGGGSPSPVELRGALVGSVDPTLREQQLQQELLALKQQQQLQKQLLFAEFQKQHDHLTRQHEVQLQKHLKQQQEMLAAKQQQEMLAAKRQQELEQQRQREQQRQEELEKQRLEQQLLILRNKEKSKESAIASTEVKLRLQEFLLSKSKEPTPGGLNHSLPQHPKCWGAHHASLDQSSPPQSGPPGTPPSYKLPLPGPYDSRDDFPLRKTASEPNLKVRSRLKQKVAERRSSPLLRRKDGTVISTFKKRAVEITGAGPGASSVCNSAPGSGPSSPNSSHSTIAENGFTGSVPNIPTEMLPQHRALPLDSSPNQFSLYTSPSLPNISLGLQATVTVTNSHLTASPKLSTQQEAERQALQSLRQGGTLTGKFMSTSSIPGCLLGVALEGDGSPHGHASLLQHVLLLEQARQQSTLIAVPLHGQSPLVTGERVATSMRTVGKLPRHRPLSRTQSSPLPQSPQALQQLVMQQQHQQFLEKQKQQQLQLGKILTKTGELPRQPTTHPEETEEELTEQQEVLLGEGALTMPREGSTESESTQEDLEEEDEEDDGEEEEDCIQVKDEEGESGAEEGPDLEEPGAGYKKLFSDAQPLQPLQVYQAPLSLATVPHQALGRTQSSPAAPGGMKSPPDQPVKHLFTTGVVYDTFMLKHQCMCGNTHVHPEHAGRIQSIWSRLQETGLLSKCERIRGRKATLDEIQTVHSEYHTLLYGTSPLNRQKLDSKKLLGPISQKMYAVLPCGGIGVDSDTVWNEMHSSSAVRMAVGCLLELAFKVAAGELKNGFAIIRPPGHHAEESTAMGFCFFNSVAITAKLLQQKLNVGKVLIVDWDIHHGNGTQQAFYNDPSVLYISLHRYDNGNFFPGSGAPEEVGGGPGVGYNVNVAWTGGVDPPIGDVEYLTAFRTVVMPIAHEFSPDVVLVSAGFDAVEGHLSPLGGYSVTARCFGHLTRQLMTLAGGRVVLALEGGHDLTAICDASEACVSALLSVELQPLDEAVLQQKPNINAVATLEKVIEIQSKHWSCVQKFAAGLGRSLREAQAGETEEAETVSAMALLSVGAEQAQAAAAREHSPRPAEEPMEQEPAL
Chain of Histone deacetylase 9 (Q9UKV0 whole entry): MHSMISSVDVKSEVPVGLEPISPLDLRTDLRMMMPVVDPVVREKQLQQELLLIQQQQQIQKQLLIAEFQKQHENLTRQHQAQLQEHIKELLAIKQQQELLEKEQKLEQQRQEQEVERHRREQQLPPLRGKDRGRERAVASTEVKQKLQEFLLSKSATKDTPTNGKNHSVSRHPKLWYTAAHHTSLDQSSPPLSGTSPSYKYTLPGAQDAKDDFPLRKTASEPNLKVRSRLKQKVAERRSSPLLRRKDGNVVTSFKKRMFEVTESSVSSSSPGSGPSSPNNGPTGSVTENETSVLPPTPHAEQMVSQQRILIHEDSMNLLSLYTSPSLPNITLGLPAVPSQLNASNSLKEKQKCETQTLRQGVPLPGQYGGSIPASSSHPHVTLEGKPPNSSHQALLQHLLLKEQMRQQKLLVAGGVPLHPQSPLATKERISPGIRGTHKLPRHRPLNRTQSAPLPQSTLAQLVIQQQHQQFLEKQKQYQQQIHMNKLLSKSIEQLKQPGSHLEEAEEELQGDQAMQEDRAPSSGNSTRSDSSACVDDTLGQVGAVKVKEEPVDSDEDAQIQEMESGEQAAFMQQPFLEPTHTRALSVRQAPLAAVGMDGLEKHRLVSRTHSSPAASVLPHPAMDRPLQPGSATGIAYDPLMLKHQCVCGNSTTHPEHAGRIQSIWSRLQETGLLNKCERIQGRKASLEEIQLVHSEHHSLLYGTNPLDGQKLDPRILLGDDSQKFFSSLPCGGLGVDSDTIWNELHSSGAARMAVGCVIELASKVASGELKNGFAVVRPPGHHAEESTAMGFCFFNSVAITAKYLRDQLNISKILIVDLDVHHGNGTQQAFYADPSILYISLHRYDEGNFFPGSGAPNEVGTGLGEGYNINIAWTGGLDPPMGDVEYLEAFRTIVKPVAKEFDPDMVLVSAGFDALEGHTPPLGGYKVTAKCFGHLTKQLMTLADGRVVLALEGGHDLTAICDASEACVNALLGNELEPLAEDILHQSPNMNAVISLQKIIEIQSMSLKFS
Chain of Sphingosine kinase 1 (Q9NYA1 whole entry): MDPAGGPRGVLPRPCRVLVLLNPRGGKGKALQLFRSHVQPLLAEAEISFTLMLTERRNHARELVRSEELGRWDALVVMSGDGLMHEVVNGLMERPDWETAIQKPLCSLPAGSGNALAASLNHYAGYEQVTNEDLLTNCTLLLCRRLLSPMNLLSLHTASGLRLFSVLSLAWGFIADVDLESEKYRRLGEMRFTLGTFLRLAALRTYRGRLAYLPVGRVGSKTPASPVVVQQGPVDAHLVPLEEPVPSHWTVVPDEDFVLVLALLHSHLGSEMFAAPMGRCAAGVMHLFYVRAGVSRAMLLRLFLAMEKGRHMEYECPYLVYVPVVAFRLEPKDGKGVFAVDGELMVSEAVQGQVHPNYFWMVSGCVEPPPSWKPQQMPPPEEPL
Chain of Histone deacetylase 1 (Q13547 whole entry): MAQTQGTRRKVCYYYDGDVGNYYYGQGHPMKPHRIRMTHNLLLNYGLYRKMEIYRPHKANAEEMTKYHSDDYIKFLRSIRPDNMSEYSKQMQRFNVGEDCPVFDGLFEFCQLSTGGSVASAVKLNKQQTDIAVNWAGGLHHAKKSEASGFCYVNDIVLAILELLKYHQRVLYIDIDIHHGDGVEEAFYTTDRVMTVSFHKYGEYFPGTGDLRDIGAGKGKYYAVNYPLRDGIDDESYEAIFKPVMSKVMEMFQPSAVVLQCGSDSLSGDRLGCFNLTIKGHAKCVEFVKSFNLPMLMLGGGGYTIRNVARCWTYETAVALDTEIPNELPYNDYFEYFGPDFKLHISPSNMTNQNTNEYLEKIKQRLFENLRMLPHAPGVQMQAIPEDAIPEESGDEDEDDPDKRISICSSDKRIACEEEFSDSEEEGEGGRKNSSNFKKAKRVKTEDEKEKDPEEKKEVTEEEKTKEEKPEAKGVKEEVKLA
Chain of Vasopressin V1a receptor (P37288 whole entry): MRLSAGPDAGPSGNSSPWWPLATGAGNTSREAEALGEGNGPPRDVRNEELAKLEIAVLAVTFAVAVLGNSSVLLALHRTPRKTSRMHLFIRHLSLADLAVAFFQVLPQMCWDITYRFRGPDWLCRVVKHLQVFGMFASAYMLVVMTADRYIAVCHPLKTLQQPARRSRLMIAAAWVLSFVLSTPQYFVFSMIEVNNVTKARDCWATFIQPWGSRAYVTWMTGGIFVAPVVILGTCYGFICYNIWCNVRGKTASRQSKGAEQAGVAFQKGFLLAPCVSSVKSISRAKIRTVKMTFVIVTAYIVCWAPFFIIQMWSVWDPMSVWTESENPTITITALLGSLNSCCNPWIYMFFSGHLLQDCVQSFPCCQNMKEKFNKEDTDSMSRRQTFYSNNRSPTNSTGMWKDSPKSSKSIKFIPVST
Chain of Histone deacetylase 2 (Q92769 whole entry): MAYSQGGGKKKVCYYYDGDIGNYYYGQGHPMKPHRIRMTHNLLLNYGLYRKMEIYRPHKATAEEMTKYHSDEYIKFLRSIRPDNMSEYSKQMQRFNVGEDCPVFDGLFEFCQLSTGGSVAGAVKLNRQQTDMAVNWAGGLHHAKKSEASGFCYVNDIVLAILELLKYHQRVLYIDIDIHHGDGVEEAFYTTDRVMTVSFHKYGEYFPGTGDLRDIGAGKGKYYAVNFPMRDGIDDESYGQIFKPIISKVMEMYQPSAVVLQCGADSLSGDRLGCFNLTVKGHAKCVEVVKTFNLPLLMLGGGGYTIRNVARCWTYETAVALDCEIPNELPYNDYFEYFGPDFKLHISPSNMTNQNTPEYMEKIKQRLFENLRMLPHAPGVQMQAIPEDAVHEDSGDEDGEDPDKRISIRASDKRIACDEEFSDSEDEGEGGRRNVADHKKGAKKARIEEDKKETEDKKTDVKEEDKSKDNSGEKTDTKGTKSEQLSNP
Chain of Histone deacetylase 3 (O15379 whole entry): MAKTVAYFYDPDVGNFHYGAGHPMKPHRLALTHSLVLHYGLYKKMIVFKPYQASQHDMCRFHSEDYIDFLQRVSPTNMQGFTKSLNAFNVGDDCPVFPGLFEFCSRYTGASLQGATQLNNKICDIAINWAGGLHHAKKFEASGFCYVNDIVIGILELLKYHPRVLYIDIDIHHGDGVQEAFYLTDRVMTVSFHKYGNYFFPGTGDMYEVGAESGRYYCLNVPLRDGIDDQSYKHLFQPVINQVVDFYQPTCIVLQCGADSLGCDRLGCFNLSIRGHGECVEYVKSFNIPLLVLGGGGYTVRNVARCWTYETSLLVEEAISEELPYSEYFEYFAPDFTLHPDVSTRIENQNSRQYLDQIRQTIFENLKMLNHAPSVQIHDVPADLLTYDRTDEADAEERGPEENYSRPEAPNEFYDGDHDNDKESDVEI

Structure (SMILES): NCCCNCCCCNCCCNC1=Nc2ccccc2CCC1
- IC50 (MCF7): > 50 µM

Structure (SMILES): Brc1cc2c(c3ccccc13)N1OC(C2)CC1CCc1ccccc1 (stereo not given)
- IC50 (Sphingosine kinase 1): > 650 µM

Structure (SMILES): O=C(NO)c1ccc(CN2c3cc(C(F)(F)F)ccc3S(=O)(=O)C[C@H]3CCCC[C@H]32)cc1
- IC50 (Histone deacetylase 2): 16 µM
- IC50 (Histone deacetylase 5): 22 µM
- IC50 (Histone deacetylase 11): 0.85 µM
- IC50 [1]: 9.4 µM
- IC50 [2]: 0.01 µM
- IC50 (Histone deacetylase 7): 15 µM
- IC50 (Histone deacetylase 9): > 30 µM
- IC50 (Histone deacetylase 8): 2 µM
- IC50 (Histone deacetylase 1): 8.8 µM
- IC50 (Histone deacetylase 3): 16 µM

Structure (SMILES): O=C(NO)c1ccc(CN2c3ccccc3SC[C@H]3CCCC[C@H]32)cc1
- IC50 (Histone deacetylase 4): > 30 µM
- IC50 (Histone deacetylase 5): 27 µM
- IC50 (Histone deacetylase 11): 1.5 µM
- IC50 [1]: > 30 µM
- IC50 [2]: 0.03 µM
- IC50 (Histone deacetylase 7): > 30 µM
- IC50 (Histone deacetylase 9): 25 µM
- IC50 (Histone deacetylase 8): 5.3 µM
- IC50 (Histone deacetylase 1): > 30 µM

Structure (SMILES): CC1C[C@]2(C)C(NCCCNCCCCNCCCN)=Nc3ccccc3[C@]2(C)N(C)c2ccccc21 (stereo not given in full)
- IC50 (MCF7): 9.84 µM

Structure (SMILES): Cc1ccccc1C(=O)Nc1ccc(C(=O)N2CCC[C@H](N(C)C)c3ccccc32)cc1
- IC50 (Vasopressin V1a receptor): 14 µM

Structure (SMILES): CC1Cc2c(Cl)nc(-c3ccccc3)nc2N(C)c2ccc(O)cc21 (stereo not given)
- IC50 (Sphingosine kinase 1): > 650 µM

Structure (SMILES): CN1CCCC(n2nc(Cc3ccc(Cl)cc3)c3ccccc3c2=O)CC1 (stereo not given) [AZELASTINE]
- Kd (Spike glycoprotein): 0.258 µM
